The target in this test is recombinant human α-thrombin (Homo sapiens, UniProt P00734). The test is described as follows: Thrombin amidolytic activity on S2238 with recombinant thrombin. The note with it: 50 mM Tris pH 7.4, 100 mM NaCl, 1 mg/ml BSA, room temperature, 405 nm, read-out: Michaelis-Menten constant (Km) of S2238 for thrombin. It counts as biochemical.

For one compound, Km results are on record in publication PMC3203879 (PLoS ONE, 2011).

What is called Km is the substrate concentration at which the rate is half of its maximum.

Each structure is given as a SMILES string.

As to `NC(N)=NCCC[C@H](NC(=O)[C@@H]1CCCCN1C(=O)[C@H](N)Cc1ccccc1)C(=O)Nc1ccc([N+](=O)[O-])cc1` [S2238, H-D-Phe-pipecolyl-Arg-pNA•2HCl], the Km came out at 3.25 ± 0.56 µM.
